# In patent US20260263470A1, “A METHOD FOR THE TREATMENT OF CHRONIC HAND ECZEMA IN PATIENTS WITH MODERATE TO SEVERE CHRONIC HAND ECZEMA” (priority 2023, published 2026):
# Tests used:
# [1] = system: IL-4 release in whole-blood; assay: in vitro IL-4 release assay in whole-blood of healthy volunteers; type: cell-based; settings: Homo sapiens; whole-blood of healthy volunteers (n=4)
# Text: (§1) Data are reported as geometric means.
# [2] = Phase 1 trial, single oral doses of delgocitinib in healthy volunteers; type: in vivo; settings: human, plasma, single oral dose 1.5 mg, read-out: peak systemic exposure (geometric mean Cmax)
# Text: as §1
# [3] = Systemic exposure in DELTA 2: plasma concentrations of delgocitinib after cream application (LC/MS); type: in vivo, human; settings: for plasma concentration of delgocitinib (geometric mean): 2-6 hours after application of cream 20 mg/g twice daily
# Text: as §1
# [4] = system: adult patients with moderate-to-severe CHE; assay: DELTA 1 and DELTA 2 together (pooled analyses and statements made for both trials); type: in vivo, human
# Method: In a pooled analysis of both trials, changes in EQ-5D scores from baseline to week 16 were assessed in all patients and in a post-hoc analysis of patients achieving clinical responses (defined as Hand Eczema Area and Severity Index (HECSI)-50, -75, and -90, Investigator's Global Assessment for CHE treatment success [IGA-CHE TS; clear or almost clear skin with a ≥2-step improvement from baseline] and ≥4-point improvements in Hand Eczema Symptom Diary (HESD) itch and pain scores.
# DELTA 1 and DELTA 2 were phase 3 trials of identical design. […] Data were pooled from both trials and changes in DLQI scores were assessed from baseline to week 16 in all patients and in a post-hoc analysis of patients achieving clinical responses, defined as Hand Eczema Area and Severity Index (HECSI)-50, -75, and -90, Investigator's Global Assessment for CHE treatment success (IGA-CHE TS; a score of 0/1 with a ≥2-step improvement from baseline), and ≥4-point improvements in Hand Eczema Symptom Diary (HESD) itch and pain scores.
# The Hand Eczema Symptom eDiary (HESD) captured patient-reported severity of itch and pain over the past 24 hours on an 11-point numeric rating scale (0=no itch/pain to 10=severe itch/pain). Changes in itch and pain from baseline were assessed daily during Week (W)1 and weekly from W1-16.
# [5] = Half-life following repeated topical administration of delgocitinib cream; type: in vivo; settings: human, plasma, 20 mg/g
# Plasma protein binding = type: in vitro ADME
smiles,measurement,setting,value
"C[C@H]1CN(C(=O)CC#N)[C@]12CCN(c1ncnc3[nH]ccc13)C2 [delgocitinib, Delgocitinib]",IC50,[1],0.0172 µg/mL
same,Cmax,[2],7.2 ng/mL
same,decrease of detectable absorption by week 16,[3]; DELTA 2,48%
same,plasma concentration of delgocitinib (geometric mean),"[3]; DELTA 2, Week 1",0.21 ng/mL
same,plasma concentration of delgocitinib (geometric mean),"[3]; DELTA 2, Week 4",0.20 ng/mL
same,plasma concentration of delgocitinib (geometric mean),"[3]; DELTA 2, Week 16",0.12 ng/mL
same,mean plasma concentration in the remaining subjects with detectable absorption,"[3]; DELTA 2, week 16",0.11 ng/mL
same,steady state reached,[3]; given as Delta 2,≤ 8 days
same,AUC(0-t),"[3]; human, plasma, topical, 20 mg/g, given as Delta 2, day 8, read-out: area under the concentration-curve from time 0 to 12 hours (AUC0-12), geometric mean",3.7 ng·h/mL
same,Cmax,"[3]; human, plasma, topical, 20 mg/g, given as Delta 2, day 8, read-out: geometric mean maximum plasma concentration (Cmax)",0.46 ng/mL
same,"rates of all AEs, AEs related to study drug and AEs leading to discontinuation of study drug, versus cream vehicle",[4]; baseline to trial completion,numerically higher with cream vehicle compared to delgocitinib
same,onset of itch and pain reduction,[4]; pooled,Early onset of itch and pain reduction was observed within W1
same,half-life,[5],1220 min
same,fraction unbound,Plasma protein binding,0.71 to 0.78
